In patent publication US4727064A, “Pharmaceutical preparations containing cyclodextrin derivatives” (priority 1985, dated 1988):
In brackets after ≈: the same amount, converted by molar mass. Where a name gives a salt, the structure may show the parent alone. Read-outs that look alike come from different tables or passages of the source.

How the values were obtained:
[1] = Solubility of drugs in aqueous cyclodextrin solubilizer solution (saturation by stirring with excess drug, room temperature, about 24 hours; spectrophotometric); settings: for solubility: water
Protocol: The solutions of solubilizer in water were saturated by stirring with excess of drug at room temperature for about 24 hours. The resulting suspensions were clarified either by filtration through a sintered glass filter or by centrifugation. Concentration of hormones in clarified solutions was measured spectrophotometrically. In these experiments drugs were solubilized with cyclodextrin derivatives with constant degrees of substitution and which are given in the footnote to Table 1.

[2] = Table 1, water, cited from earlier work
[3] = hydroxypropyl-β-cyclodextrin in water, Solubility in solubilizer solution, Table 1, hydroxypropyl-β-cyclodextrin in water, degree of substitution 6-7
[4] = hydroxypropyl-β-cyclodextrin in water, Solubility in solubilizer solution
[5] = data from K. Uekama, Pharmacology International, 61-65 (1985)
[6] = data from J. Brotherton, Sex Hormone Pharmacology (1976), p. 36
[7] = 50% aqueous carboxamido-β-cyclodextrin, Solubilities of steroids in 50% aqueous solutions of substituted cyclodextrins, Table 3, carboxamido-β-cyclodextrin
[8] = 50% aqueous carboxymethyl-β-cyclodextrin, Solubilities of steroids in 50% aqueous solutions of substituted cyclodextrins, Table 3, carboxymethyl-β-cyclodextrin
[9] = 50% aqueous diethylaminoethyl-β-cyclodextrin, Solubilities of steroids in 50% aqueous solutions of substituted cyclodextrins, Table 3, diethylaminoethyl-β-cyclodextrin
[10] = 50% aqueous hydroxypropyl-beta-cyclodextrin, Solubilities of steroids in 50% aqueous solutions of hydroxypropyl-β-cyclodextrin, Table 2, d.s. 4.7
[11] = 50% aqueous hydroxypropyl-beta-cyclodextrin, Solubilities of steroids in 50% aqueous solutions of hydroxypropyl-β-cyclodextrin, Table 2, d.s. 5.7
[12] = 50% aqueous hydroxypropyl-beta-cyclodextrin, Solubilities of steroids in 50% aqueous solutions of hydroxypropyl-β-cyclodextrin, Table 2, d.s. 7.0
[13] = 50% aqueous hydroxypropyl-beta-cyclodextrin, Solubilities of steroids in 50% aqueous solutions of hydroxypropyl-β-cyclodextrin, Table 2, d.s. 14
[14] = hydroxypropyl-β-cyclodextrin in water, 24 h

For C[C@]12CCC(=O)C=C1CC[C@@H]1[C@@H]2CC[C@@]2(C)[C@H]1CC[C@]2(C)O [17-methyltestosterone], the solubility at 24 h [1, 3] was 39 mg/mL (≈ 129 mM) and the solubility [1] was < 0.17 mg/mL.
CC(=O)Nc1ccc(O)cc1 [acetamidophen] showed a solubility at 24 h [1, 3] of 67 mg/mL (≈ 443 mM) and a solubility [1] of 11 mg/mL (≈ 72.8 mM).
For Nc1nc2c(ncn2COCCO)c(=O)[nH]1 [acyclovir], the Solubility in water [1] was “insoluble” and the solubility at 24 h [1, 4] was 2.5 mg/mL (≈ 11.1 mM).
With CN1CCc2cccc3c2[C@H]1Cc1ccc(O)c(O)c1-3 [apomorphine] the solubility at 24 h [1, 4] was 116 mg/mL (≈ 434 mM) and the solubility [1] was 20 mg/mL (≈ 74.8 mM).
With Cc1cc(C(C)(C)C)c(O)c(C(C)(C)C)c1 [butylated hydroxytoluene] the Solubility in water ([1]; Table 1, water) was “insoluble”, the solubility at 24 h ([1]; hydroxypropyl-α-cyclodextrin in water, Solubility in solubilizer solution, Table 1, hydroxypropyl-α-cyclodextrin in water, degree of substitution 6-7) was 0.3 mg/mL (≈ 1.36 mM) and the solubility at 24 h [1, 3] was 3 mg/mL (≈ 13.6 mM). For the same compound, the solubility at 24 h ([1]; hydroxypropyl-γ-cyclodextrin in water, Solubility in solubilizer solution, Table 1, hydroxypropyl-γ-cyclodextrin in water, degree of substitution 6-7) was 0.2 mg/mL (≈ 0.908 mM).
In the case of NS(=O)(=O)c1cc(C2(O)NC(=O)c3ccccc32)ccc1Cl (stereo not shown) [chlorthalidone], the solubility at 24 h [1, 4] is reported as 10.5 mg/mL (≈ 31 mM) and the solubility [1] is reported as 0.12 mg/mL (≈ 0.354 mM).
In the case of C=C1CC[C@H](O)C/C1=C/C=C1\CCC[C@]2(C)[C@@H]([C@H](C)CCCC(C)C)CC[C@@H]12 [cholecalciferol], the solubility at 24 h [1, 3] is reported as 10 mg/mL (≈ 26 mM) and the solubility [1] is reported as < 0.23 mg/mL.
For Cl.Clc1cccc(Cl)c1NC1=NCCN1 [cloridine hydrochloride], the “Solubility in solubilizer solution” value ([1]; Table 1, hydroxypropyl-β-cyclodextrin in water, degree of substitution 6-7, 1440 min) was 83.0 mg/mL.
Work on C[C@@H]1C[C@H]2[C@@H]3CCC4=CC(=O)C=C[C@]4(C)[C@@]3(F)[C@@H](O)C[C@]2(C)[C@@]1(O)C(=O)CO [dexamethasone] yielded a solubility at 24 h [1, 3] of 24 mg/mL (≈ 61.2 mM) and a solubility [1] of 0.1 mg/mL (≈ 0.255 mM).
In the case of C[C@H]1O[C@@H](O[C@H]2[C@@H](O)C[C@H](O[C@H]3[C@@H](O)C[C@H](O[C@H]4CC[C@@]5(C)[C@H](CC[C@@H]6[C@@H]5C[C@@H](O)[C@]5(C)[C@@H](C7=CC(=O)OC7)CC[C@]65O)C4)O[C@@H]3C)O[C@@H]2C)C[C@H](O)[C@@H]1O [digoxin], the Solubility in water [2, 5] is given as 0.07 mg/mL (≈ 0.0896 mM) and the solubility at 24 h [1, 3] is given as 45 mg/mL (≈ 57.6 mM).
For O=C1NC(=O)C(c2ccccc2)(c2ccccc2)N1 [diphenylhydantoin], the Solubility in water [2, 5] is given as 0.03 mg/mL (≈ 0.119 mM) and the solubility at 24 h [1, 3] is given as 1.7 mg/mL (≈ 6.74 mM).
In the case of C[C@]12CC[C@@H]3c4ccc(O)cc4CC[C@H]3[C@@H]1C[C@@H](O)[C@@H]2O [estriol], the solubility at 24 h [1, 3] is reported as 41 mg/mL (≈ 142 mM) and the solubility [1] is reported as < 1.3 mg/mL.
In the case of C#C[C@]1(O)CC[C@H]2[C@@H]3CCc4cc(OC)ccc4[C@H]3CC[C@@]21C [ethinylestradiol-3-methyl ether], the solubility at 24 h [1, 4] is reported as 27 mg/mL (≈ 87 mM) and the solubility [1] is reported as < 1.5 mg/mL.
With C#C[C@]1(O)CC[C@H]2[C@@H]3CCC4=CC(=O)CC[C@]4(C)[C@H]3CC[C@@]21C [ethisterone] the solubility at 24 h [1, 3] was 0.5 mg/mL (≈ 1.6 mM) and the solubility [1] was < 0.2 mg/mL.
For NS(=O)(=O)c1cc2c(cc1C(F)(F)F)NCNS2(=O)=O [hydroflumethiazide], the solubility at 24 h [1, 4] was 9.3 mg/mL (≈ 28.1 mM) and the solubility [1] was 0.3 mg/mL (≈ 0.906 mM).
For COc1ccc2c(c1)c(CC(=O)O)c(C)n2C(=O)c1ccc(Cl)cc1 [indomethacin], the Solubility in water [2, 5] is given as 0.02 mg/mL (≈ 0.0559 mM) and the solubility at 24 h [1, 3] is given as 4.2 mg/mL (≈ 11.7 mM).
Work on CC(C)NNC(=O)c1ccncc1 [iproniazid phosphate] yielded a solubility at 24 h [1, 4] of 95 mg/mL and a solubility [1] of 30 mg/mL.
Work on O=[N+]([O-])OCC(CO[N+](=O)[O-])O[N+](=O)[O-] [nitroglycerin] yielded a solubility at 24 h [1, 3] of 10.4 mg/mL (≈ 45.8 mM) and a solubility [1] of 1.25 mg/mL (≈ 5.5 mM).
With CC1OC(OC2CC(O)C3(CO)C4C(O)CC5(C)C(C6=CC(=O)OC6)CCC5(O)C4CCC3(O)C2)C(O)C(O)C1O (stereo not shown) [oubain] the solubility at 24 h [1, 3] was 80 mg/mL (≈ 137 mM) and the solubility [1] was 13 mg/mL (≈ 22.2 mM).
In the case of CC(=O)[C@H]1CC[C@H]2[C@@H]3CCC4=CC(=O)CC[C@]4(C)[C@H]3CC[C@]12C [progesterone], the Solubility in water [2, 6] is listed as 0.015 mg/mL (≈ 0.0477 mM), the solubility at 24 h [1, 7] is listed as 38 mg/mL (≈ 121 mM) and the solubility at 24 h [1, 8] is listed as 14 mg/mL (≈ 44.5 mM). For the same compound, the solubility at 24 h [1, 9] was 18 mg/mL (≈ 57.2 mM), the solubility at 24 h [1, 10] was 30 mg/mL (≈ 95.4 mM) and the solubility at 24 h [1, 11] was 44 mg/mL (≈ 140 mM). The solubility at 24 h [1, 12] was 35 mg/mL (≈ 111 mM), the solubility at 24 h [1, 13] was 23 mg/mL (≈ 73.1 mM) and the solubility at 24 h [1, 3] was 34 mg/mL (≈ 108 mM).
With CC1=C(/C=C/C(C)=C/C=C/C(C)=C/C=O)C(C)(C)CCC1 [retinal] the solubility at 24 h [1, 4] was 2.6 mg/mL (≈ 9.14 mM) and the solubility [1] was < 0.07 mg/mL.
With CC1=C(/C=C/C(C)=C/C=C/C(C)=C/C(=O)O)C(C)(C)CCC1 [retinoic acid, all trans] the “Solubility in solubilizer solution” value [1, 14] was 0.8 mg/mL (≈ 2.66 mM) and the solubility [1] was < 0.07 mg/mL.
In the case of CC1=C(/C=C/C(C)=C/C=C/C(C)=C/C(=O)O)C(C)(C)CCC1 [retinoic acid, choline salt of all trans], the “Solubility in solubilizer solution” value [1, 14] is reported as 18.8 mg/mL.
With CC1=C(/C=C/C(C)=C/C=C/C(C)=C/C(=O)O)C(C)(C)CCC1 [retinoic acid, ethanolamine salt of all trans] the solubility at 24 h ([1]; 40% hydroxypropyl-β-cyclodextrin, 1% ethanolamine, Solubility in solubilizer solution) was 28.4 mg/mL.
With CC1=C(/C=C/C(C)=C/C=C/C(C)=C/C(=O)O)C(C)(C)CCC1 [retinoic acid, sodium salt of all trans] the “Solubility in solubilizer solution” value [1, 14] was 1.6 mg/mL.
For CC1=C(/C=C/C(C)=C/C=C/C(C)=C/CO)C(C)(C)CCC1 [retinol], the solubility at 24 h [1, 4] was 5.5 mg/mL (≈ 19.2 mM) and the solubility [1] was < 0.1 mg/mL.
For CC(=O)S[C@@H]1CC2=CC(=O)CC[C@]2(C)[C@H]2CC[C@@]3(C)[C@@H](CC[C@@]34CCC(=O)O4)[C@H]12 [spironolactone], the Solubility in water [2, 5] is given as 0.03 mg/mL (≈ 0.072 mM) and the solubility at 24 h [1, 4] is given as 42 mg/mL (≈ 101 mM).
For C[C@]12CC[C@H]3[C@@H](CCC4=CC(=O)CC[C@@]43C)[C@@H]1CC[C@@H]2O [testosterone], the Solubility in water [2, 6] is given as 0.026 mg/mL (≈ 0.0901 mM), the solubility at 24 h [1, 7] is given as 24 mg/mL (≈ 83.2 mM) and the solubility at 24 h [1, 8] is given as 24 mg/mL (≈ 83.2 mM). It also gave a solubility at 24 h [1, 9] of 9 mg/mL (≈ 31.2 mM), a solubility at 24 h [1, 10] of 56 mg/mL (≈ 194 mM) and a solubility at 24 h [1, 11] of 62 mg/mL (≈ 215 mM). For the same compound, the solubility at 24 h [1, 12] was 40 mg/mL (≈ 139 mM), the solubility at 24 h [1, 13] was 23 mg/mL (≈ 79.7 mM) and the solubility at 24 h [1, 3] was 38 mg/mL (≈ 132 mM).
In the case of Cn1c(=O)c2[nH]cnc2n(C)c1=O [theophylline], the solubility at 24 h [1, 3] is reported as 11 mg/mL (≈ 61.1 mM) and the solubility [1] is reported as 8.3 mg/mL (≈ 46.1 mM).
